Data: patent publication EP4790066A1, “GLP-1R/GIPR/GCGR TRIPLE AGONIST ANALOGUE AND USE THEREOF” (Shenzhen Bay Laboratory, priority 2023, dated 2025)

How the values were obtained:
Assay type in all cases: cell-based
GLP-1R [1] = molecular target: T1, GLP-1R (Homo sapiens, UniProt P43220); assay: CreLuc method (CRE-luciferase reporter), HEK293/pGM-CREB-L-Luc/GLP-1R pool; details: 6 h incubation, read-out: EC50 (pM) for each receptor GLP-1R
T1 construct: expressed in transfected cells
Summary of the method: (§1)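 Stable HEK293 pools co-expressing each receptor with a CRE-luciferase reporter were plated at 20,000 cells/well in freestyle medium and treated with compound dilution series for 6 h at 37 °C. Luminescence was read with ONE-GLO to derive EC50.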

GIPR = molecular target: T2, GIPR (Homo sapiens, UniProt P48546); assay: CreLuc method (CRE-luciferase reporter), HEK293/pGM-CREB-L-Luc/GIPR pool; details: 6 h incubation, read-out: EC50 (pM) for each receptor GIPR
T2 construct: expressed in transfected cells
T2 sequence (P48546 22-466): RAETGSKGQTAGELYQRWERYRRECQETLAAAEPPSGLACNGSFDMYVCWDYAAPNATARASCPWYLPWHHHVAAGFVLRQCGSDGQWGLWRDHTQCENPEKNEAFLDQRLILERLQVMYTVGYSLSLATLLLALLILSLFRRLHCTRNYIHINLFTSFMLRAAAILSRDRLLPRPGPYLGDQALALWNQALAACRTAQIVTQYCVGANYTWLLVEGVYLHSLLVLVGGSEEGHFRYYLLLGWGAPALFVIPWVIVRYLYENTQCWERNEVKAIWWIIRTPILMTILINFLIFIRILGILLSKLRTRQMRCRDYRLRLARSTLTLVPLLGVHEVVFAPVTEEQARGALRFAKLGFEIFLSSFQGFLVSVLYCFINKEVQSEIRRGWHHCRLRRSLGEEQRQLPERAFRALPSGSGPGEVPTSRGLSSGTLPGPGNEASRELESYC
Summary of the method: as §1

GCGR [2] = molecular target: T3, GCGR (Homo sapiens, UniProt P47871); assay: CreLuc method (CRE-luciferase reporter), 293HEK/pGM-CREB-L-Luc/GCGR pool; details: 6 h incubation, read-out: EC50 (pM) for each receptor GCGR
T3 construct: expressed in transfected cells
Summary of the method: as §1

GLP-1R [3] = molecular target: T1, GLP-1R; assay: cAMP method (HTRF cAMP detection kit), HEK293/pGM-CREB-L-Luc/GLP-1 pool; details: read-out: EC50 (pM) for each receptor GLP-1R
Procedure: (§2) 2. Insulinotropic analogues can bind to target receptors on the cell membrane, activate the receptors, and induce release. The activity of the test substance can be determined using the HTRF method with a cAMP detection kit. Therefore, the cAMP method can be used to detect the target peptide derivatives (or polypeptide derivatives, i.e., TG1-TG86) prepared in Example 1 and Example 2. […] The test cell line was selected, treated with cAMP-specific trypsin for digestion. 3 mL of serum-free DMEM culture medium was added, and the cells were pipetted, resuspended, and counted. 5 µL of IBMX (prepared with serum-free DMEM medium, 0.5 mM) and test cells (5 µL/7500 cells/well) were added in a 384-well plate sequentially. The plate was incubated at 37°C under 5% CO2 for 30 min, followed by the addition of cAMP-d2 (5 µL, 1x) and Anti-cAMP-Cryptate (5 µL, 1x). The mixture was kept at room temperature for 1 h, after which the HTRF value was measured using a chemiluminescent microplate reader, and the determination result was recorded. […] Table 4: EC50 values for target peptide derivatives

GCGR [4] = molecular target: T3, GCGR; assay: cAMP method (HTRF cAMP detection kit), HEK293/pGM-CREB-L-Luc/GCG pool; details: read-out: EC50 (pM) for each receptor GCGR
Procedure: as §2

T1 sequence (P43220 24-463, species assumed): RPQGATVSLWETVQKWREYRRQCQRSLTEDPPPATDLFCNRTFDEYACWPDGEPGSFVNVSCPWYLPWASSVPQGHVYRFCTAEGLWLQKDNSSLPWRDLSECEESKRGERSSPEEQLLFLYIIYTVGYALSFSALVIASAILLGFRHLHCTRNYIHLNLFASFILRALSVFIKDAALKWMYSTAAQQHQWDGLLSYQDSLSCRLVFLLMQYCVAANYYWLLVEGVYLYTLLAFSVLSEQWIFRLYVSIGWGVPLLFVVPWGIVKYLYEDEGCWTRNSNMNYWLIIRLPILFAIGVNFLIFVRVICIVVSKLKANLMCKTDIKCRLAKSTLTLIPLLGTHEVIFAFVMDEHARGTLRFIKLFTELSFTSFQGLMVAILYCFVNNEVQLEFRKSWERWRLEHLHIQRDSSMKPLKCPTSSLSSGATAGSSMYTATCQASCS
T3 sequence (P47871 26-477, species assumed): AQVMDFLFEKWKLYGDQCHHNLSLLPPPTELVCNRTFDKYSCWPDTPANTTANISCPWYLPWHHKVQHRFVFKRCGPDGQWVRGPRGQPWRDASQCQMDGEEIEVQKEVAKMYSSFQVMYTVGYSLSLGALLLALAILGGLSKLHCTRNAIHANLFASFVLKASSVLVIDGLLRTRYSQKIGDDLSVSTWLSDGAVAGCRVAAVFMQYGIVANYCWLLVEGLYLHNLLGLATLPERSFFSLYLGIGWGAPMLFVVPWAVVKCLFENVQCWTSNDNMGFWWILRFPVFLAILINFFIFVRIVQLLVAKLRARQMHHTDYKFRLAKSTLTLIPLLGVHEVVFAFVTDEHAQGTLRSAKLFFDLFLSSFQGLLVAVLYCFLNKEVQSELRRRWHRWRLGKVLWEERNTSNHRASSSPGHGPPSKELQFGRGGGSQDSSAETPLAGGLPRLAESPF

Structure (SMILES)	EC50 (GLP-1R [1])	EC50 (GIPR)	EC50 (GCGR [2])	EC50 (GLP-1R [3])	EC50 (GCGR [4])
CC[C@H](C)[C@@H]1NC(=O)[C@H](Cc2ccccc2)NC(=O)[C@@H](NC(=O)C(C)(C)NC(=O)[C@H](CCC(N)=O)NC(=O)[C@H](C)NC(=O)[C@H](CCCCNC(C)=O)NC(=O)[C@H](CCCCN)NC(=O)[C@H](CC(=O)O)NC(=O)[C@H](CCC(C)C)NC(=O)[C@](C)(CC(C)C)NC(=O)[C@@H](NC(=O)[C@H](CO)NC(=O)[C@H](Cc2ccc(O)cc2)NC(=O)[C@H](CC(=O)O)NC(=O)[C@H](CO)NC(=O)[C@@H](NC(=O)[C@H](Cc2ccccc2)NC(=O)[C@@H](NC(=O)CNC(=O)[C@H](CCC(N)=O)NC(=O)C(C)(C)NC(=O)[C@@H](N)Cc2ccc(O)cc2)[C@@H](C)O)[C@@H](C)O)[C@@H](C)CC)CSCC(=O)NCCN(C(=O)CCC(=O)NCCOCCOCC(=O)NCCOCCOCC(=O)NCCCC[C@H](NC(=O)CCCCCCCCCCCCCCCCCCC(=O)O)C(=O)O)CCNC(=O)CSC[C@@H](C(=O)NCC(=O)NCC(=O)N2CCC[C@H]2C(=O)N[C@@H](CO)C(=O)N[C@@H](CO)C(=O)NCC(=O)N[C@@H](C)C(=O)N2CCC[C@H]2C(=O)N2CCC[C@H]2C(=O)N2CCC[C@H]2C(=O)N[C@@H](CO)C(N)=O)NC(=O)[C@H](CC(C)C)NC(=O)[C@H](CC(C)C)NC(=O)[C@H](Cc2ccc(O)cc2)NC(=O)[C@H](CCC(=O)O)NC1=O [TG25]	54 pM	24.4 pM	311 pM	2.2 pM	65.1 pM
CC[C@H](C)[C@@H]1NC(=O)[C@H](Cc2ccccc2)NC(=O)[C@@H](NC(=O)C(C)(C)NC(=O)[C@H](CCC(N)=O)NC(=O)[C@H](C)NC(=O)[C@H](CCCCNC(C)=O)NC(=O)[C@H](CCCCN)NC(=O)[C@H](CC(=O)O)NC(=O)[C@H](CC(C)C)NC(=O)[C@](C)(CC(C)C)NC(=O)[C@@H](NC(=O)[C@H](CO)NC(=O)[C@H](Cc2ccc(O)cc2)NC(=O)[C@H](CC(=O)O)NC(=O)[C@H](CO)NC(=O)[C@@H](NC(=O)[C@H](Cc2ccccc2)NC(=O)[C@@H](NC(=O)CNC(=O)[C@H](CCC(N)=O)NC(=O)C(C)(C)NC(=O)[C@@H](N)Cc2ccc(O)cc2)[C@@H](C)O)[C@@H](C)O)[C@@H](C)CC)CSCC(=O)NCCN(C(=O)CCC(=O)NCCOCCOCC(=O)NCCOCCOCC(=O)NCCCC[C@H](NC(=O)CCCCCCCCCCCCCCCCCCC(=O)O)C(=O)O)CCNC(=O)CSC[C@@H](C(=O)NCC(=O)NCC(=O)N2CCC[C@H]2C(=O)N[C@@H](CO)C(=O)N[C@@H](CO)C(=O)NCC(=O)N[C@@H](C)C(=O)N2CCC[C@H]2C(=O)N2CCC[C@H]2C(=O)N2CCC[C@H]2C(=O)N[C@@H](CO)C(N)=O)NC(=O)[C@H](CC(C)C)NC(=O)[C@H](CC(C)C)NC(=O)[C@H](Cc2c[nH]c3ccccc23)NC(=O)[C@H](CCC(=O)O)NC1=O [TG28]	60.2 pM	30 pM	482 pM	2.2 pM	83.7 pM
